The results in this text go back to PMC8132114 (ACS combinatorial science, 2019).

For test [1], the system named is VH1. It counts as biochemical.
Test [2] relates to VH1. The test is classed as biochemical. This is another data set of the same source.
For test [3], the target named is oxime-containing phosphopeptide 6f-w99. The test can be described thus: SPR. A general note: Surface plasmon resonance follows binding to a sensor surface in real time, without labels.
Test [4] has as its target oxime-containing phosphopeptide 6f-w202. The test can be described thus: SPR.

*1 amine or outer side, *2 acyl side, *3 side chain or, on linkers, in order; H or OH if unused. Where a SMILES comes first, the peptide text is derived from it. [ ]: non-standard residue; d: D form. The star is where a group is joined. X1 = O=C([C@H](CCON=Cc1c(Cl)cncc1Cl)N[*:1])[*:2]; Biotin = O=C1N[C@H]2[C@H](CS[C@H]2CCCCC(=O)*)N1; pY = N[C@@H](Cc1ccc(OP(=O)(O)O)cc1)C(=O)O; Ahx = NCCCCCC(=O)O

On to Ac-OtGGOt-NH2 [Peptide 15], for which the “inhibition, VH1 compared with DUSP14” value in test [1] was “greater for VH1 than for DUSP14”.
In test [2], `CC(C)[C@H](NC(=O)CCCCCNC(=O)CCCC[C@@H]1SC[C@@H]2NC(=O)N[C@@H]21)C(=O)N[C@@H](CC(=O)O)C(=O)N[C@@H](C)C(=O)N[C@@H](CC(=O)O)C(=O)N[C@@H](CCC(=O)O)C(=O)N[C@@H](Cc1ccc(OP(=O)(O)O)cc1)C(=O)N[C@@H](CCON=Cc1c(Cl)cncc1Cl)C(N)=O` [Peptide 6f-w202] ({Biotin-Ahx}-VDADE[pY][X1]-NH2) had a percent dephosphorylation of 43%.

B1: human DUSP14 C111S substrate-trapping mutant, O95147 1-198 (enzyme)
chain: MSSRGHSTLPRTLMAPRMISEGDIGGIAQITSSLFLGRGSVASNRHLLQARGITCIVNATIEIPNFNWPQFEYVKVPLADMPHAPIGLYFDTVADKIHSVSRKHGATLVHSAAGVSRSATLCIAYLMKFHNVCLLEAYNWVKARRPVIRPNVGFWRQLIDYERQLFGKSTVKMVQTPYGIVPDVYEKESRHLMPYWGI
B1: the Kd (in general, the equilibrium constant for the complex coming apart) in test [3] stood at 94 nM; in test [4] it was 640 nM.
